Assay results published in patent US11834698B2, “Process for determining enzyme activity in a cell by activity-based reporter gene technology (ABRGT)” (INDIAN INSTITUTE OF SCIENCE EDUCATION AND RESEARCH, priority 2018, dated 2023).
Peptide text beside a SMILES is read from it. * marks the point of attachment. Cbz = O=C(OCc1ccccc1)*; CH2F = FC*

Molecular target: T1, caspase-7 GFPspark (Homo sapiens, UniProt P55210)
T1 construct: host or cells: MCF-7, HEK-293
T1 sequence (P55210 24-198 limits assumed): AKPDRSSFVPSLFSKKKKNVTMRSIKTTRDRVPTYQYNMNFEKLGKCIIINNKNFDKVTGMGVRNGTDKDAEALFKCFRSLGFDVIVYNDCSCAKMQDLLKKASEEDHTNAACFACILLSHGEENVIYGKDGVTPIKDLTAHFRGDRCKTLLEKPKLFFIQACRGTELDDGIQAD
T1 sequence (P55210 207-303 limits assumed): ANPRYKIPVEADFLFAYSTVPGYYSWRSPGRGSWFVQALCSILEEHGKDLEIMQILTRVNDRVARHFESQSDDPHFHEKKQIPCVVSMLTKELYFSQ
Experiment: AbRGT FRET imaging / acceptor photobleaching, caspase-7 GFPspark in MCF-7 cells
Type: cell-based
Settings: for effect of inhibitor on FRET signal / signal in Rh channel in presence of inhibitor: MCF-7, inhibitor 50 μM pre-treatment, STS 6 h, probe 1
Method: FIGS. 13A and 13B depict specific detection of caspase-7 GFPspark in MCF-7 cells. […] Cells were fixed and the fluorescence signal was collected in GFP, FRET and Rh channel. […] Bar graph representing the rise in GFP intensity in ROI after rhodamine photobleaching was 89 a.u. as compared to the unbleached background, i.e., 9 a.u. FRET efficiency was calculated to be 32±2%.
FIG. 15 depicts confocal images of MCF-7 cells in GFP, FRET and Rh channel Caspase-7 GFPspark transfected MCF-7 cells were treated with STS (1 μM) for 6 h and labelled (a) (i) with probe 1 (1 μM) probe. Cells were pre-treated with (a) (ii) Z-VAD-FMK (50 μM) or (a) (iii) Q-VD-OPh (50 μM) pan-caspase inhibitors 1 h before the probe labelling. Caspase-9 GFPspark transfected MCF-7 cells were treated with STS (1 μM) for 4 h and labelled (b) (i) with probe 1 (1 μM) probe. Cells were pre-treated with (b) (ii) Z-VAD-FMK (50 μM) 1 h before probe labelling. Caspase-8 GFPspark overexpressing HEK-293 cells were treated with TRAIL (1 μg/ml) for 5 h and labelled (c) (i) with the probe 1. Cells were pre-treated with (c) (ii) Z-VAD-FMK (50 μM) 1 h before probe labelling.
Plasmids and transient transfection: GFPspark tagged plasmids; caspase-3 GFPspark tag (Cat: HG10050-ACG), caspase-7 GFPspark tag (HG10049-ACG), caspase-8 GFPspark (HG10078-ACG), caspase-9 GFPspark (HG11151-ACG) and cathepsin B GFPspark (HG10483-ACG) were procured from Sino Biological. For transfection, cells were seeded in a 6-well plate at a density of 0.4 million cells/well. At 60-70% confluency, cells were transiently transfected for 24 h at 37° C. with 1 μg of the GFPspark tagged plasmid DNA construct mixed with 5 μL of Lipofectamine 2000 (Invitrogen) according to the manufacturer's instructions. 24 h post-transfection, cells were visualized under the GFP filter for GFPspark expression under fluorescence microscope at 10× magnification.
Labelling of active caspases in apoptotic cells with FABP: After 24 h of transfection, cells were treated with STS (1 μM) drug or TRAIL (1 μg/ml) for apoptotic induction and incubated for 2, 4, 6 and 8 h at 37° C. in a humidified atmosphere of 5% CO2/95% air. Cells were gently scraped off from the surface at the end of apoptotic induction and centrifuged at 3000 rpm for 5 min. The cell pellet was resuspended in 300 μL of fresh DMEM containing 1 μM of probe for probe 2 and incubated for additional 2 h at 37° C. in a humidified atmosphere of 5% CO2. Cells were again centrifuged at 3000 rpm for 5 mins, and the supernatant was decanted. Cells were washed with 1×PBS, thrice finally resuspended in 20 μL of 1×PBS. The cell suspension was put on a slide, and a coverslip was placed over it. It was left for air drying. Slides were then imaged for GFP, FRET and rhodamine fluorescence signals under confocal microscopy.
Inhibitor assay: Cells were pre-treated with 50 μM of Z-VAD-FMK or Q-VD-OPh or E-64 inhibitor 1 h before probe 1 labelling and incubated for 1 h at 37° C. in a humidified atmosphere of 5% CO2. Cells were gently scraped off from the surface at the end of inhibitor treatment and centrifuged at 3000 rpm for 5 min Cells were then labelled with the probe 1 as described in the previous section.
Fluorescence imaging studies, FRET procedure: Images were collected on Zeiss LSM710 confocal microscope with 25 mW argon laser using Zen10 software. The laser was tuned to lines at 488 nm (excitation laser for GFPspark) and 561 nm (excitation laser for rhodamine) Cells were examined with a 40× 1.3 NA Zeiss oil immersion objective and 2.4× zoom. Images were collected in the three channels; GFP channel, argon laser tuned at 488 nm with 2% laser intensity and fluorescence emission was collected in emission range of 490-550 nm; rhodamine channel, argon laser tuned to 561 nm laser with 2% laser intensity and fluorescence emission was collected in range 550-650 nm and FRET channel with excitation laser of GFPSPARK channel and emission range of rhodamine channel. […]

| Compound | effect of inhibitor on FRET signal | signal in Rh channel in presence of inhibitor | rise in GFP intensity in ROI after rhodamine photobleaching (MCF-7, STS 1 μM 5 h, probe 1 μM) | calculated FRET efficiency (MCF-7, STS 1 μM 5 h or 6 h, probe 1 μM) |
| --- | --- | --- | --- | --- |
| CC(C)[C@H](NC(=O)c1ccc2ccccc2n1)C(=O)N[C@@H](CC(=O)O)C(=O)COc1c(F)cccc1F [Q-VD-OPh] | abolished | significant punctate labelling | – | – |
| COC(=O)C[C@H](NC(=O)[C@H](C)NC(=O)[C@@H](NC(=O)OCc1ccccc1)C(C)C)C(=O)CF [Z-VAD-FMK] (Cbz-Val-Ala-Asp(OMe)-CH2F) | completely abolished | completely abolished | – | – |
| Rhodamine-VAD-fluoromethyl ketone [probe 1] | – | – | 89 a.u. | 32±2% |
